Results on three compounds are retold here after EP0671924B1, “DIGITALIS-LIKE COMPOUNDS” (YISSUM RESEARCH DEVELOPMENT COMPANY OF THE HEBREW …, priority 1992, dated 1994).

For the assay, the system named is digoxin antibody. It counts as binding. Here is the method:
Measurement of digoxin-like immunoreactivity: Radioimmunoassay was performed with digoxin RIA kit obtained from Amersham International (Amersham, Buckinghamshire, England). Assay conditions were as recommended by the manufacturer.
Digoxin radioimmunoassay was performed using commercially available kit. The concentration of the partially purified lens DLC was determined from its ability to inhibit [^3H]-ouabain binding assuming identical affinity to the ouabain receptor as ouabain and MW of 372.
In the case of `C[C@H]1O[C@@H](O[C@H]2[C@@H](O)C[C@H](O[C@H]3[C@@H](O)C[C@H](O[C@H]4CC[C@@]5(C)[C@H](CC[C@@H]6[C@@H]5C[C@@H](O)[C@]5(C)[C@@H](C7=CC(=O)OC7)CC[C@]65O)C4)O[C@@H]3C)O[C@@H]2C)C[C@H](O)[C@@H]1O` [Digoxin], the Cross reactivity was 100% and the Digoxin-like immunoreactive material was 10,000 ng/ml.

On to `C[C@]12CC[C@H](O)C[C@H]1CC[C@@H]1[C@@H]2CC[C@]2(C)[C@@H](c3ccc(=O)oc3)CC[C@]12O` [Bufalin], for which the Cross reactivity turned out to be 0.045% and the Digoxin-like immunoreactive material is 4.53 ng/mL.

`C[C@@H]1O[C@@H](O[C@H]2C[C@@H](O)[C@]3(CO)[C@H]4[C@H](O)C[C@]5(C)[C@@H](C6=CC(=O)OC6)CC[C@]5(O)[C@@H]4CC[C@]3(O)C2)[C@H](O)[C@H](O)[C@H]1O` [Ouabain] yielded a Cross reactivity of 0.012% and a Digoxin-like immunoreactive material of 1.21 ng/mL.
